Assay results taken from patent US20250169715A1, “USE OF BLINK REFLEX FOR HEADACHE RESPONSE MONITORING AND/OR TREATMENT SELECTION” (priority 2022, published 2025).

Test system: patients with headache/migraine
Assay: Blink reflex measuring device: blink-associated parameters before and after treatment, by treatment modality
Assay type: in vivo, human
Source text: In embodiments, the one or more blink-associated parameters are selected from: • (a) latency, optionally in milliseconds, comprising a time differential between stimulation and eyelid movement, e.g., one or more of upper eyelid or lower eyelid; • (b) differential latency, optionally in milliseconds, comprising a time differential between the start of ipsilateral eye movement and the start of contralateral eye movement; • (c) delta 30, comprising a time difference between ipsilateral eye and contralateral eye movement; • (d) eyelid excursion, optionally in pixels, comprising a distance traveled by the eyelid from the tonic lid position to closed position; • (e) initial lid velocity, optionally in pixels/msec, comprising an average eyelid speed following start of eyelid movement, e.g., the first about 5 frames, the first about 7 frames, or the first about 10 frames; • (f) time to close, optionally in log scale, comprising a time for lid to travel from tonic lid position to the closed position; • (g) time to open, optionally in log scale, comprising a time for lid to travel from closed position back to tonic lid position; • (h) time under threshold, optionally in log scale, comprising a time that the eyelid spends below the threshold position; • (i) number of oscillations, comprising cycles of up and down upper eyelid movement after a stimulated blink; • (j) total blink time, optionally in log scale, comprising a time from start of eyelid movement until it returns to its tonic lid position; • (k) number of blinks; • (l) blink rate, optionally per minute; • (m) area under curve, optionally in pixels; • (n) maximum closing velocity, optionally in […], comprising a maximum velocity during eyelid closure; • (o) maximum opening velocity, optionally in […], comprising a maximum velocity during eyelid opening; and • (p) time to first oscillation, optionally in log scale, comprising the elapsed time between the eyelid returning within threshold of a tonic position for a stimulated blink and the onset of the next unstimulated blink.
In this study, a population of male and female migraine patients are assessed for blink reflex response using the blink reflex measuring device. The patients in this study are tested when they visit the doctor during their routine office visits and/or before and after a doctor prescribed therapeutic intervention.
Blink reflex measuring device was used for collecting multiple blink-associated parameters from patients with headache/migraine before and after treatment undergoing treatment.
Blink reflex measuring device was used for collecting multiple blink-associated parameters from patients with headache/migraine before and after undergoing different treatments. The different treatments were intravenous (IV) ketamine infusion therapy, sphenopalatine ganglion (SPG) block+peripheral nerve block (PNB), and IV ketamine+SPG+PNB. The results are shown in TABLE 2, FIGS. 34-6D and FIG. 7.
TABLES 4-6 show the variable changes based on right and left eye by treatment modality: intravenous (IV) ketamine infusion therapy (TABLE 4); sphenopalatine ganglion (SPG) block+peripheral nerve block (PNB) (TABLE 5); and IV ketamine+SPG+PNB (TABLE 6). It is important to note that whereas FIGS. 34-6D and FIG. 7 show the changes based on treatment modality of each variable and show the overall changes predicated on both right and left eye, TABLES 4-6 break down the variables by right and left eye changes.

[1] = left eye, post treatment, Table 4
[2] = post-treatment average, patients with headache/migraine, by treatment modality
[3] = right eye, post treatment, Table 4

For `CNC1(c2ccccc2Cl)CCCCC1=O` (stereo not drawn) [ketamine], the “Blink Rate, Left Eye Post Tx” value (left eye, post treatment) was 89.415 per min, the “Blinks, Left Eye Post Tx” value (left eye, post treatment) was 5.945 qty and the “Delta 30, Left Eye Post Tx” value (left eye, post treatment) was 9.328 ms. For the same compound, the “Differential Latency, Left Eye Post Tx” value (left eye, post treatment) was 4.625 ms, the “Excursions, Left Eye Post Tx” value (left eye, post treatment) was 91.548 pixels and the “Latency, Left Eye Post Tx” value (left eye, post treatment) was 53.958 ms. The “Oscillations Rate, Left Eye Post Tx” value (left eye, post treatment) was 2.293 per min, the “Oscillations, Left Eye Post Tx” value (left eye, post treatment) was 9.914 no and the “Time to Close, Left Eye Post Tx” value (left eye, post treatment) was 27.686 ms. For the same compound, the “Time to First Oscillation, Left Eye Post Tx” value (left eye, post treatment) was 7.301 Ln ms, the “Time to Open, Left Eye Post Tx” value (left eye, post treatment) was 286.813 ms and the “Area Under the Curve, Left Eye Post Tx” value [1] was 10.250 pixels. The “Time Under 20, Left Eye Post Tx” value [1] was 5.228 Ln ms, the “Blink reflex differences pre and post treatment via Blink Reflex Measuring Device” value (patients having a migraine, p=0.05) was “Statistical differences” and the “Area Under Curve, POST-TX AVERAGE” value [2] was 29522.632 pixels. For the same compound, the “Blink Rate, POST-TX AVERAGE” value [2] was 83.490 per min, the “Blinks, POST-TX AVERAGE” value [2] was 5.345 qty and the “Delta 30, POST-TX AVERAGE” value [2] was 7.435 ms. The “Differential Latency, POST-TX AVERAGE” value [2] was 6.145 ms, the “Excursion, POST-TX AVERAGE” value [2] was 88.575 pixels and the “Latency, POST-TX AVERAGE” value [2] was 49.827 ms. The “Oscillations, POST-TX AVERAGE” value [2] was 10.273 no, the “Time Under 20, POST-TX AVERAGE” value [2] was 5.237 Ln ms and the “Time to Close, POST-TX AVERAGE” value [2] was 29.930 ms. For the same compound, the “Time to First Oscillation, POST-TX AVERAGE” value [2] was 7.412 Ln ms, the “Time to Open, POST-TX AVERAGE” value [2] was 307.108 ms and the “Blink Rate, Right Eye Post Tx” value (right eye, post treatment) was 73.691 per min. For the same compound, the “Blinks, Right Eye Post Tx” value (right eye, post treatment) was 5.170 qty, the “Delta 30, Right Eye Post Tx” value (right eye, post treatment) was 5.766 ms and the “Differential Latency, Right Eye Post Tx” value (right eye, post treatment) was 5.438 ms. For the same compound, the “Excursions, Right Eye Post Tx” value (right eye, post treatment) was 92.605 pixels, the “Latency, Right Eye Post Tx” value (right eye, post treatment) was 52.583 ms and the “Oscillations Rate, Right Eye Post Tx” value (right eye, post treatment) was 1.966 per min. For the same compound, the “Oscillations, Right Eye Post Tx” value (right eye, post treatment) was 8.606 no, the “Time to Close, Right Eye Post Tx” value (right eye, post treatment) was 31.119 ms and the “Time to First Oscillation, Right Eye Post Tx” value (right eye, post treatment) was 7.517 Ln ms. For the same compound, the “Time to Open, Right Eye Post Tx” value (right eye, post treatment) was 258.318 ms, the “Area Under the Curve, Right Eye Post Tx” value [3] was 10.157 pixels and the “Time Under 20, Right Eye Post Tx” value [3] was 5.099 Ln ms.
